Test results: US4423063A, “2,4-Dioxo-4-substituted-1-butaoic acid derivatives useful in treating urinary track calcium oxalate lithiasis” (Merck & Co., Inc., priority 1982, dated 1983)

Molecular target: T1, pig liver glycolate oxidase (Sus scrofa, UniProt I3LVF1)
T1 construct: The enzyme was pig liver glycolate oxidase; from tissue; host or cells: pig liver
T1 sequence (I3LVF1 1-370): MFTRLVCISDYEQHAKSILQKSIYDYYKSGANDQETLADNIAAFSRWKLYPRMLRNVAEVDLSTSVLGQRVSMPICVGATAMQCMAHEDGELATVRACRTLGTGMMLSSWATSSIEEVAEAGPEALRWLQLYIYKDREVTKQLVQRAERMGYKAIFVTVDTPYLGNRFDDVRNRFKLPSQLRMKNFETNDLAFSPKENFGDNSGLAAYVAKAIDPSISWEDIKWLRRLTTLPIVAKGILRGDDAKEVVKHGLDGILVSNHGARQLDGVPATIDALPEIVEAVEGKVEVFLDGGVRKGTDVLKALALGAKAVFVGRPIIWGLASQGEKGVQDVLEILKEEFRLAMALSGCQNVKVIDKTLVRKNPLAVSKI
Assay: Glycolate oxidase enzyme inhibition
Format: biochemical
Conditions: 25° C., 0.10 M phosphate buffer pH 7.0, 3 mM EDTA, 2×10^-4 M sodium glycolate
Procedure: The usefulness of the compounds of the present invention in treating urinary tract, especially renal, calcium oxalate lithiasis, is shown by the ability of those compounds to inhibit the glycolate oxidase enzyme. […] The activity of the enzyme, in turn, was measured by following the rate of reduction of sodium 2,6-dichlorophenol-indophenol by sodium glycolate in the presence of the enzyme. The enzyme was pig liver glycolate oxidase. The reaction was followed spectrophotometrically at 600 nm. The assay was conducted at 25° C. in a 0.10 M phosphate buffer, pH 7.0, containing 3 mM EDTA. Initial substrate concentrations were 5×10^-5 M of sodium 2,6-dichlorophenol-indophenol and 2×10^-4 M of sodium glycolate. Reactions were initiated by the addition of enzyme. Initial rates during the period from 1 to 3 min. after the addition of enzyme were recorded on a Beckman Acta M-VI spectrophotometer. One control was run simultaneously with three test reactions and all initial rates were adjusted to a common control rate. For further details of this procedure, see Randall et al., J. Med. Chem., 22, 6, 612 (1979).

| SMILES | IC50 | IC50 (unit inferred) |
| --- | --- | --- |
| O=C(O)C(=O)CC(=O)c1ccc(-c2ccc(SCC3(O)COc4ccccc4OC3)cc2)cc1 [4-[[4'-[(3,4-dihydro-3-hydroxy-2H-1,5-benzodioxepin-3-yl)methylthio]-1,1'-biphenyl]-4-yl]-2,4-dioxo-1-butanoic acid] | 62 nM | – |
| O=C(O)C(=O)CC(=O)c1ccc(-c2ccc(SCCc3ccncc3)cc2)cc1 [4-[[4'-[2-(4-Pyridinylethyl)thio]-1,1'-biphenyl]-4-yl]-2,4-dioxo-1-butanoic acid] | 90 nM | – |
| CSc1ccc(-c2ccc(C(=O)CC(=O)C(=O)O)cc2)cc1 [4-[(4'-Methylthio-1,1'-biphenyl)-4-yl]-2,4-dioxo-1-butanoic acid] | – | 150 nM |

The remaining molecules from weak to strong by IC50, led by results:

| IC50 | IC50 (unit inferred) | SMILES |
| --- | --- | --- |
| 2100 nM | – | O=C(O)C(=O)CC(=O)c1ccc(-c2ccc(S)cc2)cc1 [4-[(4'-Mercapto-1,1'-biphenyl)-4-yl]-2,4-dioxo-1-butanoic acid] |
| 420 nM | – | O=C(O)C(=O)CC(=O)c1ccc(-c2ccc(SCc3ccccc3)cc2)cc1 [4-[[4'-[(Phenylmethyl)thio]-1,1'-biphenyl]-4-yl]-2,4-dioxo-1-butanoic acid] |
